Test results as given in patent US20200017467A1, “NOVEL TRIAZOLE DERIVATIVES” (BAYER CROPSCIENCE AKTIENGESELLSCHAFT, priority 2017, published 2020).

What was measured:
Sphaerotheca fuliginea = test: In vivo preventive test on Sphaerotheca fuliginea (powdery mildew on cucurbits); details: Podosphaera fuliginea, 360 h; 500 ppm of active ingredient; gherkin, preventive spray, evaluated 15 days after inoculation; read-out: efficacy
Protocol: Example C: In Vivo Preventive Test on Sphaerotheca fuliginea (Powdery Mildew on Cucurbits) [table] The active ingredients were made soluble and homogenized in a mixture of dimethyl sulfoxide/acetone//Tween® 80 and then diluted in water to the desired concentration. Young plants of gherkin were treated by spraying the active ingredient prepared as described above. Control plants were treated only with an aqueous solution of acetone/dimethyl sulfoxide/Tween® 80. After 24 hours, the plants were contaminated by spraying the leaves with an aqueous suspension of Sphaerotheca fuliginea spores. The contaminated gherkin plants were incubated for 72 hours at 18° C. and at 100% relative humidity and then for 12 days at 20° C. and at 70-80% relative humidity. The test was evaluated 15 days after the inoculation. 0% means an efficacy which corresponds to that of the control plants while an efficacy of 100% means that no disease was observed.

Uromyces appendiculatus = test: In vivo preventive test on Uromyces appendiculatus (bean rust); details: 264 h, 500 ppm of active ingredient, preventive spray, evaluated 11 days after inoculation, read-out: efficacy
Protocol: Example D: In Vivo Preventive Test on Uromyces appendiculatus (Bean Rust) [table] The active ingredients were made soluble and homogenized in a mixture of dimethyl sulfoxide/acetone//Tween® 80 and then diluted in water to the desired concentration. Young plants of bean were treated by spraying the active ingredient prepared as described above. Control plants were treated only with an aqueous solution of acetone/dimethyl sulfoxide/Tween® 80. After 24 hours, the plants were contaminated by spraying the leaves with an aqueous suspension of Uromyces appendiculatus spores. The contaminated bean plants were incubated for 24 hours at 20° C. and at 100% relative humidity and then for 10 days at 20° C. and at 70-80% relative humidity. The test was evaluated 11 days after the inoculation. 0% means an efficacy which corresponds to that of the control plants while an efficacy of 100% means that no disease was observed.

Septoria tritici [1] = test: Example F-C: in vivo 5 days preventive Septoria tritici test (wheat); details: Zymoseptoria tritici, 504 h, inoculated 5 days after spraying, evaluated 21 days after inoculation, read-out: Efficacy in % Example F-C
Protocol: Example F: In Vivo Septoria tritici Test (Wheat); Comparison of Pyridinyloxy-Pyridyl Compounds According to the Invention Vs. Compounds Known from WO-A 2010/146116 [table] To produce a suitable preparation of active compound, 1 part by weight of active compound or active compound combination is mixed with the stated amounts of solvent and emulsifier, and the concentrate is diluted with water to the desired concentration. Example F-C: In Vivo 5 Days Preventive Septoria tritici Test (Wheat) To test for preventive and long-lasting activity, young plants are sprayed with a preparation of active compound or active compound combination at the stated rate of application. After the spray coating has been dried, the plants are placed in the greenhouse at a temperature of approximately 15° C. and a relative atmospheric humidity of approximately 80%. 5 days later the plants are sprayed with a spore suspension of Septoria tritici. The plants remain for 48 hours in an incubation cabinet at approximately 20° C. and a relative atmospheric humidity of approximately 100% and afterwards for 60 hours at approximately 15° C. in a translucent incubation cabinet at a relative atmospheric humidity of approximately 100%. Then the plants are placed in the greenhouse at a temperature of approximately 15° C. and a relative atmospheric humidity of approximately 80%. The test is evaluated 21 days after the inoculation. 0% means an efficacy which corresponds to that of the untreated control, while an efficacy of 100% means that no disease is observed.

Septoria tritici [2] = test: In vivo preventive test on Septoria tritici (leaf spot on wheat); details: Zymoseptoria tritici, 576 h, 500 ppm of active ingredient, preventive spray, evaluated 24 days after inoculation, read-out: efficacy
Protocol: Example B: In Vivo Preventive Test on Septoria tritici (Leaf Spot on Wheat) [table] The active ingredients were made soluble and homogenized in a mixture of dimethyl sulfoxide/acetone//Tween® 80 and then diluted in water to the desired concentration. Young plants of wheat were treated by spraying the active ingredient prepared as described above. Control plants were treated only with an aqueous solution of acetone/dimethyl sulfoxide/Tween® 80. After 24 hours, the plants were contaminated by spraying the leaves with an aqueous suspension of Septoria tritici spores. The contaminated wheat plants were incubated for 72 hours at 18° C. and at 100% relative humidity and then for 21 days at 20° C. and at 90% relative humidity. The test was evaluated 24 days after the inoculation. 0% means an efficacy which corresponds to that of the control plants while an efficacy of 100% means that no disease was observed.

Compound: CC(O)(Cn1cncn1)c1ccc(Oc2ccc(Br)nc2)nc1C(F)(F)F (stereo not drawn) [I-01, 2-[6-[(6-bromo-3-pyridyl)oxy]-2-(trifluoromethyl)-3-pyridyl]-1-(1,2,4-triazol-1-yl)propan-2-ol]
- pest or weed control at 500 ppm (Sphaerotheca fuliginea): 90 to 100%
- pest or weed control at 500 ppm (Uromyces appendiculatus): 80 to 89%
- pest or weed control at 500 ppm (Septoria tritici [1]): 100%
- pest or weed control at 500 ppm (Septoria tritici [2]): 90 to 100%

Compound: CC(O)(Cn1cncn1)c1ccc(Oc2ccc(C(F)(F)F)nc2)nc1C(F)(F)F (stereo not drawn) [I-02, 1-(1,2,4-triazol-1-yl)-2-[2-(trifluoromethyl)-6-[[6-(trifluoromethyl)-3-pyridyl]oxy]-3-pyridyl]propan-2-ol]
- pest or weed control at 500 ppm (Sphaerotheca fuliginea): 90 to 100%
- pest or weed control at 500 ppm (Uromyces appendiculatus): 90 to 100%
- pest or weed control at 500 ppm (Septoria tritici [1]): 100%
- pest or weed control at 500 ppm (Septoria tritici [2]): 90 to 100%

Compound: CC(O)(Cn1cncn1)c1cnc(Oc2ccc(C(F)(F)F)nc2)cc1C(F)(F)F (stereo not drawn) [I-04]
- pest or weed control at 500 ppm (Sphaerotheca fuliginea): 90 to 100%
- pest or weed control at 500 ppm (Uromyces appendiculatus): 90 to 100%
- pest or weed control at 500 ppm (Septoria tritici [2]): 90 to 100%

Compound: CC(O)(Cn1cncn1)c1ccc(Oc2ccc(Cl)nc2)nc1C(F)(F)F (stereo not drawn) [I-05]
- pest or weed control at 500 ppm (Sphaerotheca fuliginea): 90 to 100%
- pest or weed control at 500 ppm (Uromyces appendiculatus): 90 to 100%
- pest or weed control at 500 ppm (Septoria tritici [1]): 63%
- pest or weed control at 500 ppm (Septoria tritici [2]): 90 to 100%

Compound: CC(O)(Cn1cncn1)c1cnc(Oc2ccc(Cl)nc2)cc1C(F)(F)F (stereo not drawn) [I-06, 2-[6-[(6-chloro-3-pyridyl)oxy]-4-(trifluoromethyl)-3-pyridyl]-1-(1,2,4-triazol-1-yl)propan-2-ol]
- pest or weed control at 500 ppm (Sphaerotheca fuliginea): 90 to 100%
- pest or weed control at 500 ppm (Uromyces appendiculatus): 90 to 100%
- pest or weed control at 500 ppm (Septoria tritici [1]): 88%
- pest or weed control at 500 ppm (Septoria tritici [2]): 90 to 100%

Compound: CC(O)(Cn1cncn1)c1cnc(Oc2ccc(Br)nc2)cc1C(F)(F)F (stereo not drawn) [I-07]
- pest or weed control at 500 ppm (Sphaerotheca fuliginea): 90 to 100%
- pest or weed control at 500 ppm (Uromyces appendiculatus): 70 to 79%
- pest or weed control at 500 ppm (Septoria tritici [1]): 100%
- pest or weed control at 500 ppm (Septoria tritici [2]): 90 to 100%

Compound: OC(Cn1cncn1)c1ccc(Oc2ccc(C(F)(F)F)nc2)nc1C(F)(F)F (stereo not drawn) [I-09]
- pest or weed control at 500 ppm (Sphaerotheca fuliginea): 90 to 100%
- pest or weed control at 500 ppm (Uromyces appendiculatus): 90 to 100%
- pest or weed control at 500 ppm (Septoria tritici [1]): 100%
- pest or weed control at 500 ppm (Septoria tritici [2]): 90 to 100%

Compound: OC(Cn1cncn1)c1cnc(Oc2ccc(Br)nc2)cc1C(F)(F)F (stereo not drawn) [I-13]
- pest or weed control at 500 ppm (Sphaerotheca fuliginea): 90 to 100%
- pest or weed control at 500 ppm (Septoria tritici [1]): 100%
- pest or weed control at 500 ppm (Septoria tritici [2]): 90 to 100%
